30 molecules from ChEMBL document CHEMBL1614632, “Trend analysis of a database of intravenous pharmacokinetic parameters in humans for 670 drug compounds” (Drug Metab Dispos, 2008) can be followed below.

Data set [1] in a line: clinical. As to conditions: human, in vivo, iv.
The nature of data set [2]: clinical. As to conditions: human, in vivo, iv, Vdss.
A short description of data set [3]: clinical. As to conditions: human, in vivo, iv. This is another data set of the same source.
Data set [4] in a line: clinical. To be noted: human, in vivo, iv, t1/2.
Data set [5] in a line: clinical. To be noted: human, in vivo, iv, CL.

By MRT is commonly meant the average time that molecules of a dose stay in the body. The Vd is a proportionality between amount in the body and measured concentration, not a real space. Low values mean confinement near the circulation, high ones extensive tissue distribution. One may read the fraction unbound as free concentration divided by total concentration. Low readings indicate little free substance, high ones much free substance. For orientation: half-life means the time in which the quantity being followed falls by half. A low value points to fast loss. What is called clearance is the volume of plasma or blood freed of the substance per unit of time.

In data set [1], `C[C@@H](c1ncncc1F)[C@](O)(Cn1cncn1)c1ccc(F)cc1F` [VORICONAZOLE] returned an MRT of 4.4 h. For the same molecule, the Vd in data set [2] was found to be 2.2 L/kg. This molecule also displayed a fraction unbound in data set [3] of 0.42. This molecule gave a half-life in data set [4] of 5.6 h.

For the molecule `O=c1[nH]cc(F)c(=O)[nH]1` [FLUOROURACIL], the fraction unbound in data set [3] worked out at 0.64.

`C[C@@H](O)[C@H]1C(=O)N2C(C(=O)O)=C(SCCOC(N)=O)S[C@H]12` [Sch-34343]: the MRT in data set [1] came out at 0.67 h. Further, the Vd in data set [2] was found to be 0.3 L/kg. Also, the fraction unbound in data set [3] is 0.35. Further, the half-life in data set [4] is 0.8 h.

In data set [1], `CCN(C(C)=O)c1cccc(-c2ccnc3c(C#N)cnn23)c1` [ZALEPLON] showed an MRT of 1.4 h. The molecule also showed a Vd in data set [2] of 1.3 L/kg. In addition, the fraction unbound in data set [3] came out at 0.4.

Turning to `Cc1cn([C@H]2C[C@H](N=[N+]=[N-])[C@@H](CO)O2)c(=O)[nH]c1=O` [ZIDOVUDINE], the MRT in data set [1] was 1.2 h. Further, in data set [2], the Vd is 1.8 L/kg. For the same molecule, the fraction unbound in data set [3] was 0.8. Also, the half-life in data set [4] was 1.3 h.

The molecule `CC(=O)O[C@H]1C[C@@H]2CC[C@@H]3[C@H](CC[C@@]4(C)[C@H]3C[C@H]([N+]3(C)CCCCC3)[C@@H]4OC(C)=O)[C@@]2(C)C[C@@H]1[N+]1(C)CCCCC1` [PANCURONIUM] registered an MRT in data set [1] of 2.2 h. The same molecule gave a distribution volume (Vd) in data set [2] of 0.2 L/kg. In addition, the fraction unbound in data set [3] is 0.09. In addition, the half-life in data set [4] was 1.9 h.

The molecule `CCC[C@H](N[C@@H](C)C(=O)N1[C@H](C(=O)O)C[C@@H]2CCCC[C@@H]21)C(=O)O` [PERINDOPRILAT] yielded an MRT in data set [1] of 7.6 h. Besides, the clearance in data set [5] was 1.7 mL/min/kg. This molecule also registered a fraction unbound in data set [3] of 0.16. The half-life in data set [4] was 29 h.

`CCCC(=O)OCOC(=O)C1=C(C)NC(C)=C(C(=O)OC)C1c1cccc(Cl)c1Cl` (stereo not given) [CLEVIDIPINE] gave an MRT in data set [1] of 0.07 h. For the same molecule, the distribution volume (Vd) in data set [2] is 0.58 L/kg. In addition, the fraction unbound in data set [3] stood at 0.0038. For the same molecule, in data set [4], the half-life was 0.3 h.

`CN[C@@H]1[C@@H](O)[C@@H](O[C@@H]2[C@@H](O)[C@H](O[C@H]3O[C@H](CN)[C@@H](O)[C@H](O)[C@H]3O)[C@@H](N)C[C@H]2NC(=O)[C@@H](O)CN)OC[C@]1(C)O` [ISEPAMICIN] came in with an MRT in data set [1] of 4.1 h. In data set [5], this molecule came in with a clearance of 1.3 mL/min/kg. The molecule also gave a fraction unbound in data set [3] of 0.95. For the same molecule, the half-life in data set [4] was 24 h.

Molecule `CC[C@@]1(O)C(=O)OCc2c1cc1n(c2=O)Cc2cc3c(CN(C)C)c(O)ccc3nc2-1` [TOPOTECAN] yielded a fraction unbound in data set [3] of 0.65.

In the case of `CO[C@@]1(NC(=O)C2SC(=C(C(N)=O)C(=O)O)S2)C(=O)N2C(C(=O)O)=C(CSc3nnnn3C)CS[C@@H]21` (stereo not given in full) [CEFOTETAN], in data set [1], the MRT amounted to 5.2 h. In addition, the clearance in data set [5] is 0.42 mL/min/kg. The same molecule showed a fraction unbound in data set [3] of 0.15. The molecule further gave a half-life in data set [4] of 4.5 h.

Molecule `CCCCCCCCCCNCCN[C@@]1(C)C[C@H](O[C@H]2[C@H](Oc3c4cc5cc3Oc3ccc(cc3Cl)[C@@H](O)[C@@H](NC(=O)[C@@H](CC(C)C)NC)C(=O)N[C@@H](CC(N)=O)C(=O)N[C@H]5C(=O)N[C@H]3C(=O)N[C@H](C(=O)N[C@H](C(=O)O)c5cc(O)c(CNCP(=O)(O)O)c(O)c5-c5cc3ccc5O)[C@H](O)c3ccc(c(Cl)c3)O4)O[C@H](CO)[C@@H](O)[C@@H]2O)O[C@@H](C)[C@H]1O` [TELAVANCIN] showed an MRT in data set [1] of 9.2 h. For the same molecule, the clearance in data set [5] came out at 0.2 mL/min/kg. Moreover, the fraction unbound in data set [3] amounted to 0.07. In data set [4], this molecule showed a half-life of 6.7 h.

Consider `COc1ccc(Cl)cc1C(=O)NCCc1ccc(S(=O)(=O)NC(=O)NC2CCCCC2)cc1` [GLYBURIDE], for which the mean residence time (MRT) in data set [1] came out at 1.6 h. The molecule also registered a Vd in data set [2] of 0.08 L/kg. The fraction unbound in data set [3] came out at 0.021. Further, in data set [4], the half-life was 2.2 h.

In the case of `Nc1ccc(S(=O)(=O)c2ccc(N)cc2)cc1` [DAPSONE], the MRT in data set [1] came to 29 h. In data set [2], this molecule registered a Vd of 0.83 L/kg. The molecule also registered a fraction unbound in data set [3] of 0.25.

In turn, `COc1ccc(-c2nc3ccc(C4=NNC(=O)CC4C)cc3[nH]2)cc1` (stereo not given) [PIMOBENDAN] returned an MRT in data set [1] of 2.2 h. For the same molecule, the Vd in data set [2] was found to be 2.04 L/kg. Also, the fraction unbound in data set [3] came out at 0.024. In addition, the half-life in data set [4] is 1.8 h.

Molecule `O=C1CN(/N=C/c2ccc([N+](=O)[O-])o2)C(=O)N1` [NITROFURANTOIN] displayed an MRT in data set [1] of 0.98 h. This molecule returned a Vd in data set [2] of 0.57 L/kg. The molecule further came in with a fraction unbound in data set [3] of 0.17. In data set [4], this molecule gave a half-life of 0.97 h.

In data set [1], `N[C@@H](Cc1ccc(O)c(O)c1)C(=O)O` [LEVODOPA] gave an MRT of 1.2 h. The fraction unbound in data set [3] came out at 0.76. The molecule also had a half-life in data set [4] of 1.3 h.

Regarding `CCN(CC)CC#CCOC(=O)C(O)(c1ccccc1)C1CCCCC1` (stereo not given) [OXYBUTYNIN], the MRT in data set [1] came to 2.7 h. In data set [2], this molecule returned a Vd of 0.85 L/kg. The same molecule gave a fraction unbound in data set [3] of 0.0034. The molecule further had a half-life in data set [4] of 7.2 h.

`COC(=O)[C@H]1[C@@H](OC(=O)c2ccccc2)C[C@@H]2CC[C@H]1N2C` [COCAINE] returned an MRT in data set [1] of 1 h. In data set [3], this molecule yielded a fraction unbound of 0.12. This molecule gave a half-life in data set [4] of 0.76 h.

With `CCOc1ccc(NC(C)=O)cc1` [PHENACETIN], the MRT in data set [1] is 1.1 h. Besides, in data set [2], the Vd came out at 1.4 L/kg. For the same molecule, the fraction unbound in data set [3] came to 0.47. This molecule had a half-life in data set [4] of 0.92 h.

In the case of `C[C@]12C=CC(=O)C=C1CC[C@@H]1[C@@H]2[C@@H](O)C[C@@]2(C)[C@H]1CC[C@]2(O)C(=O)CO` [PREDNISOLONE], in data set [3], the fraction unbound is 0.25.

In data set [1], `C=CCN1CC[C@]23c4c5ccc(O)c4O[C@H]2C(=O)CC[C@@]3(O)[C@H]1C5` [NALOXONE] showed an MRT of 1.2 h. Also, the Vd in data set [2] amounted to 1.7 L/kg. In data set [3], this molecule had a fraction unbound of 0.54. The half-life in data set [4] was 1.1 h.

The molecule `N=C(N)c1ccc(C(=O)N[C@@H](Cc2ccc(O)cc2)C(=O)N2CCC(OCC(=O)O)CC2)cc1` [LAMIFIBAN] displayed an MRT in data set [1] of 2.5 h. In data set [3], the fraction unbound is 0.94. In data set [4], this molecule gave a half-life of 2.1 h.

`CN(C)CCCN1c2ccccc2CCc2ccccc21` [IMIPRAMINE] had a Vd in data set [2] of 12 L/kg. In addition, the fraction unbound in data set [3] was found to be 0.075.

Turning to `CC(CN1c2ccccc2Sc2ccccc21)N(C)C` (stereo not given) [PROMETHAZINE], the fraction unbound in data set [3] was found to be 0.09.

`CC(=O)Nc1c(I)c(NC(C)=O)c(I)c(C(=O)O)c1I` [DIATRIZOIC ACID] registered an MRT in data set [1] of 2.6 h. This molecule showed a clearance in data set [5] of 1.7 mL/min/kg. Moreover, the fraction unbound in data set [3] came to 1.

In turn, `c1ccc(C2(c3ccccc3)CC2C2=NCCN2)cc1` (stereo not given) [CIFENLINE] registered an MRT in data set [1] of 7.8 h. Further, the clearance in data set [5] was found to be 8.6 mL/min/kg. In data set [2], this molecule registered a Vd of 4.1 L/kg. In data set [4], the half-life was 7.3 h.

`C=C(CC)C(=O)c1ccc(OCC(=O)O)c(Cl)c1Cl` [ETHACRYNIC ACID] came in with an MRT in data set [1] of 0.5 h. In data set [5], this molecule showed a clearance of 8.73 mL/min/kg. Moreover, the Vd in data set [2] amounted to 0.26 L/kg. In data set [4], the half-life was 0.5 h.

`CN(C)/N=N/c1ccc(C(=O)O)cc1` returned an MRT in data set [1] of 3 h. Further, the clearance in data set [5] was 1.3 mL/min/kg. In data set [2], this molecule came in with a Vd of 0.25 L/kg. In data set [4], the half-life was 2.5 h.

With `NC[C@H]1O[C@H](O[C@H]2[C@H](O[C@@H]3O[C@H](CO)[C@@H](O)[C@H]3O)[C@@H](O)[C@H](N)C[C@@H]2N)[C@H](N)[C@@H](O)[C@@H]1O` [RIBOSTAMYCIN], the MRT in data set [1] was 2.8 h. Besides, the clearance in data set [5] worked out at 1.5 mL/min/kg. This molecule also showed a Vd in data set [2] of 0.25 L/kg. For the same molecule, the half-life in data set [4] was 2.5 h.
